Test results: patent US10479784B2, “Substituted pyrazin-2-amines as inhibitors of ATR kinase” (Vertex Pharmaceuticals Incorporated, priority 2008, dated 2019)

target: full-length ATR (Homo sapiens (Human), UniProt Q13535); test: ATR Inhibition Assay (radioactive-phosphate incorporation); format: biochemical; settings: read-out: ATR Ki
Method in brief: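 Ki(app) was derived by non-linear regression of background-corrected initial rates of 33P incorporation into an 800 μM target peptide, read by phosphocellulose filter scintillation counting. Reaction conditions: 5 nM full-length ATR, 10 μM [γ-33P]ATP, pH 7.5 Tris buffer with MgCl2 and DTT, 25 °C, 10-min preincubation, 24 h run.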

Sequence of full-length ATR (Q13535 whole entry): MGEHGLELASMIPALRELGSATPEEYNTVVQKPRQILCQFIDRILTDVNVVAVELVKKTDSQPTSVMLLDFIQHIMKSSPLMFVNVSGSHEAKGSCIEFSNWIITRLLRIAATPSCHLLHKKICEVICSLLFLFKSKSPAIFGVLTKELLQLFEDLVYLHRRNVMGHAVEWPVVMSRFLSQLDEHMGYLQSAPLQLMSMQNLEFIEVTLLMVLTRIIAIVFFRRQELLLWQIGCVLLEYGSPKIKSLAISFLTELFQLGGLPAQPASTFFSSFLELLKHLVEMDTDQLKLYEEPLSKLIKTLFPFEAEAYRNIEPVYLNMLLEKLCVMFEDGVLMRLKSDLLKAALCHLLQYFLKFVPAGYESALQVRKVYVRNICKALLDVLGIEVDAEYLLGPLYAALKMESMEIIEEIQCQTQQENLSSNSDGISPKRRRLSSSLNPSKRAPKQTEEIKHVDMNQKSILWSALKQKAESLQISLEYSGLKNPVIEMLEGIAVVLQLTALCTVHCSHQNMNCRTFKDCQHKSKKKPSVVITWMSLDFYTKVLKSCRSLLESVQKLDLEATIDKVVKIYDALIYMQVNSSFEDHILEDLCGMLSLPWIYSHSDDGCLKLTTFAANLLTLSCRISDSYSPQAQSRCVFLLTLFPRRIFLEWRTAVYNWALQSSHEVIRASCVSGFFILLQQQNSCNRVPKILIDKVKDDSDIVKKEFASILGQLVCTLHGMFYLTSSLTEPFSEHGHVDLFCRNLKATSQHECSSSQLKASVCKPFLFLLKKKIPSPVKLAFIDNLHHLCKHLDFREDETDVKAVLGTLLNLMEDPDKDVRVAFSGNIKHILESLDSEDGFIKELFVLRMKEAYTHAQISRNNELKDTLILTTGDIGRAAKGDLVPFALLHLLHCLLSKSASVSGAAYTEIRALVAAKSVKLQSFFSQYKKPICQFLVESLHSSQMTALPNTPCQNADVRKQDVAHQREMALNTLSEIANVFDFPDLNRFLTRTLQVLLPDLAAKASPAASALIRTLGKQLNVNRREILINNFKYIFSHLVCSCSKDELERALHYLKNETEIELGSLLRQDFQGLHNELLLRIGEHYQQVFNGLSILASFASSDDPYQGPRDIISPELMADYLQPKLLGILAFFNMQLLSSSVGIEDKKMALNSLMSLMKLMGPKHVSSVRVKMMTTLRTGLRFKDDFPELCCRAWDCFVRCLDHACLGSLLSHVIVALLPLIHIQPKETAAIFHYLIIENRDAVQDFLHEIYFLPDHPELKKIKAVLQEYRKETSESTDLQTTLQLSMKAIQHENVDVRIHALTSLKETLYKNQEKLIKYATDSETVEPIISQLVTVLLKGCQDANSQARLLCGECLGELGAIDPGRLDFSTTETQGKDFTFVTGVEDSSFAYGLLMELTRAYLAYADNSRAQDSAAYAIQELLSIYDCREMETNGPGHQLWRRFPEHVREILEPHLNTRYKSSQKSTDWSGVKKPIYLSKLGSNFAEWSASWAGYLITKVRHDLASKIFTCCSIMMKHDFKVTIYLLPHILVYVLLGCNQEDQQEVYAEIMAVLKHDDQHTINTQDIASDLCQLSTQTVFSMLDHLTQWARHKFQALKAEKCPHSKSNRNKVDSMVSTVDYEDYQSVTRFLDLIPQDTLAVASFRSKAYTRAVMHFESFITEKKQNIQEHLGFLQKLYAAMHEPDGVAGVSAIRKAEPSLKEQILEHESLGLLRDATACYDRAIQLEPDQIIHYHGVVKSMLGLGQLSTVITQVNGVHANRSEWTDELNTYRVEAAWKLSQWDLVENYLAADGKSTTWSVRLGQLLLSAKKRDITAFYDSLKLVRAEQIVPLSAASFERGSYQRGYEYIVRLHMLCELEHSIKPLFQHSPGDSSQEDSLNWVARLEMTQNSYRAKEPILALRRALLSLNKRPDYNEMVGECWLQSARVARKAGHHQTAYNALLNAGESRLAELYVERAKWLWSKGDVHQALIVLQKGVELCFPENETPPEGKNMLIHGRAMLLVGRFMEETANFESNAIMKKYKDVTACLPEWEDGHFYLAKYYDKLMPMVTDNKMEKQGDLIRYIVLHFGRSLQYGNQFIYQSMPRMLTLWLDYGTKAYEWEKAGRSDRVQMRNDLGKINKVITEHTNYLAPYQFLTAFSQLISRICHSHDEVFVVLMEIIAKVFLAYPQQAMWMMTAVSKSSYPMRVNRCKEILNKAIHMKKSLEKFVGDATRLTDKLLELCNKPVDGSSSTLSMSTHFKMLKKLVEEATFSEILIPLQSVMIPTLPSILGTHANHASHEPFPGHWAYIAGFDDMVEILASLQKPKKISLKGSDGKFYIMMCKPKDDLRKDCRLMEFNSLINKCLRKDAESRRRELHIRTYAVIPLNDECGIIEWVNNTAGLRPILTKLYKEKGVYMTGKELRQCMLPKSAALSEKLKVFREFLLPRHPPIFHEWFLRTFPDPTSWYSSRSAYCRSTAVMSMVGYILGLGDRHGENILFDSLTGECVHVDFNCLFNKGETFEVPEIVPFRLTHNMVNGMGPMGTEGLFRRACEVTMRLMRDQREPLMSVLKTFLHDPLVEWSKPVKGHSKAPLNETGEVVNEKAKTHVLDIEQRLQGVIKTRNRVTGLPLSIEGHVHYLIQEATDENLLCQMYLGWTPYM

SMILES | Ki
CN(C)C(=O)c1ccc(-c2cnc(N)c(-c3nnc(-c4cccc(N)c4)o3)n2)cc1 [IA-142, 4-[5-amino-6-[5-(3-aminophenyl)-1,3,4-oxadiazol-2-yl]pyrazin-2-yl]-N,N-dimethyl-benzamide] | ≤ 10 nM
CC(C)S(=O)(=O)c1ccc(-c2cnc(N)c(-c3nnc(-c4cc(C#N)cs4)o3)n2)cc1 [IA-143, 5-[5-[3-amino-6-(4-isopropylsulfonylphenyl)pyrazin-2-yl]-1,3,4-oxadiazol-2-yl]thiophene-3-carbonitrile] | 10 to 100 nM
CS(=O)(=O)Nc1cccc(-c2cnc(N)c(-c3nnc(-c4ccccc4)o3)n2)c1 [IA-144, N-[3-[5-amino-6-(5-phenyl-1,3,4-oxadiazol-2-yl)pyrazin-2-yl]phenyl]methanesulfonamide] | 10 to 100 nM
CC(C)S(=O)(=O)c1ccc(-c2cnc(N)c(-c3nnc(-c4ccc5c(c4)CCNC5)o3)n2)cc1 [IA-145, 5-(4-isopropylsulfonylphenyl)-3-[5-(1,2,3,4-tetrahydroisoquinolin-6-yl)-1,3,4-oxadiazol-2-yl]pyrazin-2-amine] | ≤ 10 nM
CNCc1cccc(-c2nnc(-c3nc(-c4ccc(S(=O)(=O)C(C)C)cc4)cnc3N)o2)c1 [IA-146, 5-(4-isopropylsulfonylphenyl)-3-[5-[3-(methylaminomethyl)phenyl]-1,3,4-oxadiazol-2-yl]pyrazin-2-amine] | ≤ 10 nM
CC(C)S(=O)(=O)c1ccc(-c2cnc(N)c(-c3nnc(-c4ccc(C5CCCN5)s4)o3)n2)cc1 (stereo not drawn) [IA-147, 5-(4-isopropylsulfonylphenyl)-3-[5-(5-pyrrolidin-2-yl-2-thienyl)-1,3,4-oxadiazol-2-yl]pyrazin-2-amine] | ≤ 10 nM
CN(C)C(=O)c1ccc(-c2cnc(N)c(-c3nnc(-c4ccccc4)o3)n2)c(C=CF)c1 [IA-148, 4-[5-amino-6-(5-phenyl-1,3,4-oxadiazol-2-yl)pyrazin-2-yl]-3-(2-fluorovinyl)-N,N-dimethyl-benzamide] | 100 to 5000 nM
CCS(=O)(=O)c1ccc(-c2cnc(N)c(-c3nnc(-c4ccccc4)o3)n2)cc1 [IA-149, 5-(4-ethylsulfonylphenyl)-3-(5-phenyl-1,3,4-oxadiazol-2-yl)pyrazin-2-amine] | ≤ 10 nM
Nc1ncc(-c2cccc(OC(F)(F)F)c2)nc1-c1nnc(-c2ccccc2)o1 [IA-150, 3-(5-phenyl-1,3,4-oxadiazol-2-yl)-5-[3-(trifluoromethoxy)phenyl]pyrazin-2-amine] | 100 to 5000 nM
CN(C)C(=O)c1ccc(-c2cnc(N)c(-c3nnc(Nc4ccccc4Cl)o3)n2)cc1 [IA-151, 4-[5-amino-6-[5-(2-chloroanilino)-1,3,4-oxadiazol-2-yl]pyrazin-2-yl]-N,N-dimethyl-benzamide] | 10 to 100 nM
N#Cc1cc(C(=O)N2CCCNCC2)ccc1-c1cnc(N)c(-c2nnc(-c3cccs3)o2)n1 [IA-152, 2-(5-amino-6-(5-(thiophen-2-yl)-1,3,4-oxadiazol-2-yl)pyrazin-2-yl)-5-(1,4-diazepane-1-carbonyl)benzonitrile] | ≤ 10 nM
N#Cc1ccncc1-c1cnc(N)c(-c2nnc(-c3ccccc3)o2)n1 [IA-153, 3-(5-amino-6-(5-phenyl-1,3,4-oxadiazol-2-yl)pyrazin-2-yl)pyridine-4-carbonitrile] | 10 to 100 nM
CCc1ccccc1-c1nnc(-c2nc(-c3ccc(C(=O)N(C)C)cc3)cnc2N)o1 [IA-155, 4-(5-amino-6-(5-(2-ethylphenyl)-1,3,4-oxadiazol-2-yl)pyrazin-2-yl)-N,N-dimethylbenzamide] | 10 to 100 nM
CN(C)C(=O)c1ccc(-c2cnc(N)c(-c3nnc(NCCc4ccccc4)o3)n2)cc1 [IA-156, 4-[5-amino-6-[5-(phenethylamino)-1,3,4-oxadiazol-2-yl]pyrazin-2-yl]-N,N-dimethyl-benzamide] | 100 to 5000 nM
COc1ccc(-c2nnc(-c3nc(-c4ccc(C(=O)N(C)C)cc4)cnc3N)o2)cc1 [IA-157, 4-[5-amino-6-[5-(4-methoxyphenyl)-1,3,4-oxadiazol-2-yl]pyrazin-2-yl]-N,N-dimethyl-benzamide] | 10 to 100 nM
CC(C)S(=O)(=O)c1ccc(-c2cnc(N)c(-c3nnc(-c4ccc(CNC5CC5)cc4)o3)n2)cc1 [IA-158, 3-[5-[4-[(cyclopropylamino)methyl]phenyl]-1,3,4-oxadiazol-2-yl]-5-(4-isopropylsulfonylphenyl)pyrazin-2-amine] | ≤ 10 nM
CC(C)S(=O)(=O)c1ccc(-c2cnc(N)c(-c3nnc(NC(=O)[C@H]4N[C@H]5CC[C@@H]4C5)o3)n2)cc1 [IA-160, (1R,4S,6S)—N-[5-[3-amino-6-(4-isopropylsulfonylphenyl)pyrazin-2-yl]-1,3,4-oxadiazol-2-yl]-5-azabicyclo[2.2.1]heptane-6-carboxamide] | 100 to 5000 nM
CN(C)C(=O)c1ccc(-c2cnc(N)c(-c3nnc(-c4ccccc4)o3)n2)c(-c2cnco2)c1 [IA-161, 4-[5-amino-6-(5-phenyl-1,3,4-oxadiazol-2-yl)pyrazin-2-yl]-N,N-dimethyl-3-oxazol-5-yl-benzamide] | 10 to 100 nM
CN(C)C(=O)c1ccc(-c2cnc(N)c(-c3nnc(-c4ccc(CNC(=O)OC(C)(C)C)cc4)o3)n2)cc1 [IA-162, tert-butyl N-[[4-[5-[3-amino-6-[4-(dimethylcarbamoyl)phenyl]pyrazin-2-yl]-1,3,4-oxadiazol-2-yl]phenyl]methyl]carbamate] | 10 to 100 nM
CN(C)C(=O)c1ccc(-c2cnc(N)c(-c3nnc(NC4CCCCC4)o3)n2)cc1 [IA-163, 4-[5-amino-6-[5-(cyclohexylamino)-1,3,4-oxadiazol-2-yl]pyrazin-2-yl]-N,N-dimethyl-benzamide] | 100 to 5000 nM
CC(C)(C)OC(=O)NCC[S+]([O-])c1ccccc1-c1cnc(N)c(-c2nnc(-c3ccccc3)o2)n1 (stereo not drawn) [IA-164, tert-butyl N-[2-[2-[5-amino-6-(5-phenyl-1,3,4-oxadiazol-2-yl)pyrazin-2-yl]phenyl]sulfinylethyl]carbamate] | 100 to 5000 nM
CN(C)CCOc1cc(-c2cnc(N)c(-c3nnc(-c4ccccc4)o3)n2)ccn1 [IA-165, 5-[2-(2-dimethylaminoethyloxy)-4-pyridyl]-3-(5-phenyl-1,3,4-oxadiazol-2-yl)pyrazin-2-amine] | 10 to 100 nM
CNCc1ccc(-c2nnc(-c3nc(-c4ccc(S(=O)(=O)C(C)C)cc4)cnc3N)o2)c(C)c1 [IA-166, 5-(4-isopropylsulfonylphenyl)-3-[5-[2-methyl-4-(methylaminomethyl)phenyl]-1,3,4-oxadiazol-2-yl]pyrazin-2-amine] | ≤ 10 nM
Cc1ccsc1-c1nnc(-c2nc(-c3ccc(C(=O)N(C)C)cc3)cnc2N)o1 [IA-167, 4-[5-amino-6-[5-(3-methyl-2-thienyl)-1,3,4-oxadiazol-2-yl]pyrazin-2-yl]-N,N-dimethyl-benzamide] | ≤ 10 nM
CC(C)S(=O)(=O)c1ccc(-c2cnc(N)c(-c3nnc(CN)o3)n2)cc1 [IA-168, 3-[5-(aminomethyl)-1,3,4-oxadiazol-2-yl]-5-(4-isopropylsulfonylphenyl)pyrazin-2-amine] | 100 to 5000 nM
CN(C)CCS(=O)(=O)c1ccc(-c2cnc(N)c(-c3nnc(-c4ccccc4)o3)n2)cc1 [IA-169, 5-[4-(2-dimethylaminoethylsulfonyl)phenyl]-3-(5-phenyl-1,3,4-oxadiazol-2-yl)pyrazin-2-amine] | ≤ 10 nM
Nc1ncc(-c2ccoc2)nc1-c1nnc(-c2ccccc2)o1 [IA-170, 5-(3-furyl)-3-(5-phenyl-1,3,4-oxadiazol-2-yl)pyrazin-2-amine] | 10 to 100 nM
